According to patent publication US20110009345A1 (priority 2009, published 2011):
No end group written: not given here.

System: adjuvant-induced arthritis
Conditions: male Sprague-Dawley rats, by gavage during 10 days

YGSRS [peptide, tyrosine-glycine-serine-arginine-serine]
effect on body weight: without inducing weight loss
